Here are results for 19 compounds from PubChem BioAssay (NCI).

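Cultured in 96-well plates, cells were exposed to test compound for 48 hours across five concentrations. GI50 is the concentration that inhibits growth by half. TGI: total growth inhibition.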

Test systems include HCT-116 colon; SF-268 CNS; MCF7 breast; PC-3 prostate; MOLT-4 leukemia; HCT-15 colon; MALME-3M melanoma; NCI-H226 lung; K-562 leukemia; SF-295 CNS; NCI-H23 lung; UO-31 renal; T-47D breast.
Holding throughout (assay): NCI tumour cell line growth inhibition, 48 h

As to `CCOP(=O)(Cc1nc(C#N)c(N)o1)OCC`, the TGI in the test on HCT-116 colon, in the test on SF-268 CNS, in the test with MCF7 breast, in the test with PC-3 prostate, in the test on MOLT-4 leukemia and with HCT-15 colon was greater than 100 µM throughout. Besides, the TGI in the test on MALME-3M melanoma, with NCI-H226 lung, in the test on K-562 leukemia and in the test on SF-295 CNS was greater than 100 µM throughout.

For the compound `O=S(=O)(O)c1cc(N=[N+]([O-])c2ccc(N=Nc3ccccc3)cc2S(=O)(=O)O)ccc1/C=C/c1ccc(N=[N+]([O-])c2ccc(N=Nc3ccccc3)cc2S(=O)(=O)O)cc1S(=O)(=O)O`, the TGI in the test on NCI-H23 lung, in the test with HCT-116 colon, in the test with SF-268 CNS, with MCF7 breast, in the test on MOLT-4 leukemia and with HCT-15 colon was greater than 100 µM in each case. For the same compound, the TGI in the test with MALME-3M melanoma, in the test on UO-31 renal, in the test on NCI-H226 lung, with K-562 leukemia and in the test on SF-295 CNS was greater than 100 µM each time.

Turning to `COc1ccc(C2=Nc3c(nc(SC)[nH]c3=O)NC(c3ccccc3)C2)cc1` (stereo not given), the TGI was 45.6 µM with NCI-H23 lung; greater than 100 µM in the test on HCT-116 colon; 41.8 µM with MCF7 breast; greater than 100 µM with PC-3 prostate; 57.1 µM with MOLT-4 leukemia; greater than 100 µM in the test on MALME-3M melanoma. For the same compound, the TGI with UO-31 renal was found to be 56.3 µM; in the test with NCI-H226 lung, 65.2 µM; in the test with K-562 leukemia, 66 µM; with SF-295 CNS it was 60.4 µM.

As for `O=[N+]([O-])c1ccc(Nc2cccc3c2[nH]c2c(-c4ccccc4)nccc23)c([N+](=O)[O-])c1`, the TGI in the test on NCI-H23 lung, with HCT-116 colon, in the test on SF-268 CNS, in the test with MCF7 breast, with MOLT-4 leukemia and with HCT-15 colon was greater than 100 µM each time. Besides, the TGI in the test on MALME-3M melanoma, with UO-31 renal, in the test on NCI-H226 lung, with K-562 leukemia and in the test with SF-295 CNS was greater than 100 µM in each case.

As to `CC(C)N1[C@@H]2CCCC[C@H]2N(C(C)C)[P+]1=O`, the TGI with NCI-H23 lung, with HCT-116 colon, in the test with SF-268 CNS, with T-47D breast, with MCF7 breast and in the test on MOLT-4 leukemia was greater than 100 µM throughout. For the same compound, the TGI with HCT-15 colon, in the test with UO-31 renal, in the test with NCI-H226 lung, in the test with K-562 leukemia and in the test on SF-295 CNS was greater than 100 µM in each case.

In the case of `CCN(CC)C(=O)c1cc([N+](=O)[O-])c(=O)n2c1[nH]c1ccccc12`, the TGI with NCI-H23 lung, in the test on HCT-116 colon, in the test on SF-268 CNS, with T-47D breast, with PC-3 prostate and in the test on MOLT-4 leukemia was greater than 100 µM in each case. Also, the TGI in the test on MALME-3M melanoma, with UO-31 renal, in the test on NCI-H226 lung, in the test on K-562 leukemia and in the test on SF-295 CNS was greater than 100 µM throughout.

For the compound `CC1=C(C(=O)NCc2ccccc2)C(c2ccco2)C(C(=O)NCc2ccccc2)=C(C)N1`, the TGI in the test with NCI-H23 lung, with HCT-116 colon, in the test with SF-268 CNS, in the test with MOLT-4 leukemia, in the test on HCT-15 colon and in the test on MALME-3M melanoma was greater than 100 µM in each case. Moreover, the TGI with UO-31 renal, in the test with NCI-H226 lung, in the test on K-562 leukemia and in the test with SF-295 CNS was greater than 100 µM in each case.

In the case of `Cc1ccc2c(c1)Nc1ccccc1P2(=O)O`, the TGI in the test with NCI-H23 lung, with HCT-116 colon, in the test on SF-268 CNS, with T-47D breast, in the test with PC-3 prostate and in the test on MOLT-4 leukemia was greater than 100 µM in each case. The TGI in the test with HCT-15 colon, in the test with MALME-3M melanoma, in the test on UO-31 renal, in the test on NCI-H226 lung, with K-562 leukemia and in the test with SF-295 CNS was greater than 100 µM in each case.

As for `Cc1ccc(C(=O)N/N=C(\N=Nc2ccccc2C(=O)O)c2ccc(N(C)C)cc2)cc1`, the TGI in the test on NCI-H23 lung, with HCT-116 colon, with SF-268 CNS, in the test on MCF7 breast, in the test with PC-3 prostate and in the test on MOLT-4 leukemia was greater than 100 µM in each case. The TGI in the test with HCT-15 colon, in the test with UO-31 renal, in the test with NCI-H226 lung, in the test with K-562 leukemia and in the test on SF-295 CNS was greater than 100 µM each time.

With `CCCCCCCCCCOc1ccc(N=Nc2nnc(-c3ccc(OCCCCC)cc3)s2)cc1`, the TGI in the test on NCI-H23 lung, with HCT-116 colon, in the test on SF-268 CNS, in the test on T-47D breast, in the test on MCF7 breast and in the test with PC-3 prostate was greater than 100 µM throughout. In addition, the TGI in the test with MOLT-4 leukemia, in the test with HCT-15 colon, with MALME-3M melanoma, in the test on K-562 leukemia and with SF-295 CNS was greater than 100 µM each time.

For the compound `Cc1ccc2c(=O)cc(-c3cccc(F)c3)[nH]c2n1`, the TGI with NCI-H23 lung is 0.739 µM; in the test with SF-268 CNS it was greater than 100 µM; in the test on MOLT-4 leukemia, greater than 100 µM; with MALME-3M melanoma, greater than 100 µM; in the test on NCI-H226 lung, 0.475 µM; with K-562 leukemia, greater than 100 µM.

Take `CCOC(=O)C1CCCN1C(=O)c1ccccc1Cl` (stereo not given): the TGI in the test with NCI-H23 lung, in the test on HCT-116 colon, in the test on SF-268 CNS, in the test on T-47D breast, with MCF7 breast and in the test with MOLT-4 leukemia was greater than 100 µM throughout. Also, the TGI with HCT-15 colon, with MALME-3M melanoma, in the test on UO-31 renal, with NCI-H226 lung, in the test with K-562 leukemia and in the test on SF-295 CNS was greater than 100 µM in each case.

With `Nc1ncc2c(n1)-c1ccccc1OC2`, the TGI in the test on NCI-H23 lung, in the test on HCT-116 colon, in the test on SF-268 CNS, in the test with MCF7 breast, in the test on MOLT-4 leukemia and in the test on HCT-15 colon was greater than 100 µM in each case. The TGI in the test on MALME-3M melanoma, with UO-31 renal, in the test with NCI-H226 lung, in the test with K-562 leukemia and with SF-295 CNS was greater than 100 µM each time.

As to `O=c1onc(Nc2ccccc2)n1-c1ccccc1`, the TGI in the test with NCI-H23 lung, with HCT-116 colon, with MCF7 breast, with PC-3 prostate, with MOLT-4 leukemia and with HCT-15 colon was greater than 100 µM throughout. Further, the TGI with MALME-3M melanoma, in the test with UO-31 renal, in the test with NCI-H226 lung, in the test with K-562 leukemia and in the test on SF-295 CNS was greater than 100 µM each time.

`O=C1c2cc3ncsc3cc2C(=O)c2c(O)ccc(O)c21`: the TGI with NCI-H23 lung, in the test on HCT-116 colon, in the test with SF-268 CNS, with MCF7 breast, with PC-3 prostate and with MOLT-4 leukemia was greater than 100 µM in each case. The TGI in the test with HCT-15 colon, in the test on MALME-3M melanoma, in the test with UO-31 renal, with NCI-H226 lung, with K-562 leukemia and in the test with SF-295 CNS was greater than 100 µM in each case.

As to `COc1cc(-c2nc(SC)nc3c2CCc2ccccc2-3)cc(OC)c1OC`, the TGI in the test with NCI-H23 lung, in the test with HCT-116 colon, in the test with SF-268 CNS, in the test with T-47D breast, with MCF7 breast and in the test with PC-3 prostate was greater than 100 µM throughout. Also, the TGI with MOLT-4 leukemia was 96.2 µM; with UO-31 renal, greater than 100 µM; in the test with K-562 leukemia, 79.2 µM; with SF-295 CNS it was greater than 100 µM.

Turning to `N=C(N)c1ccc(-c2ccc(-c3ccc(Cl)cc3Cl)s2)nc1`, the GI50 in the test with NCI-H23 lung was 1.65 µM; in the test with T-47D breast, 2.21 µM; in the test on PC-3 prostate, 1.86 µM; in the test with MALME-3M melanoma it was 1.71 µM; in the test on UO-31 renal, 1.57 µM; with NCI-H226 lung, 5.02 µM. Moreover, in the test on SF-295 CNS, the GI50 is 1.74 µM. The TGI in the test with NCI-H23 lung was determined as 3.19 µM; in the test with T-47D breast it was 4.96 µM; in the test with PC-3 prostate, 3.67 µM; with MALME-3M melanoma, 3.23 µM; in the test with UO-31 renal, 2.93 µM; in the test with NCI-H226 lung, 28.4 µM. For the same compound, in the test with SF-295 CNS, the TGI worked out at 3.24 µM.

Regarding `CSc1nc(-c2ccccc2)nc(=[N+]2CCOCC2)s1`, the TGI with NCI-H23 lung, in the test on HCT-116 colon, in the test on SF-268 CNS, in the test with MOLT-4 leukemia, with HCT-15 colon and in the test on MALME-3M melanoma was greater than 100 µM in each case. Moreover, the TGI in the test on UO-31 renal, in the test on NCI-H226 lung and in the test on K-562 leukemia was greater than 100 µM throughout.

As to `N#Cc1c(N2CCCC2)nsc1Nc1ccccc1`, the TGI in the test with NCI-H23 lung, in the test on HCT-116 colon, with SF-268 CNS, in the test with T-47D breast, with PC-3 prostate and in the test with MOLT-4 leukemia was greater than 100 µM throughout. Also, the TGI with HCT-15 colon, with MALME-3M melanoma, in the test with UO-31 renal, in the test on NCI-H226 lung, in the test with K-562 leukemia and with SF-295 CNS was greater than 100 µM in each case.
